From ChEMBL document CHEMBL1141236, “Surfing the piperazine core of tricyclic farnesyltransferase inhibitors” (Bioorg Med Chem Lett, 2005)

How the values were obtained:
[1] = target: T1, Protein farnesyltransferase (Homo sapiens, UniProt P49354+P49356); assay: Inhibitory activity against human farnesyltransferase; assay type: protein-complex assay
[2] = target: T1, Protein farnesyltransferase; assay: Inhibitory activity in COS cell Ha-Ras processing assay; assay type: functional, cell-based, Chlorocebus aethiops

Question: Which IC50 [1] does the source give for O=C(NCc1cccnc1)C1CN(C2c3ccc(Cl)cc3CCc3cc(Br)cnc32)CCN1C(=O)CCc1ccccc1 (stereo not drawn) here?
Answer: Its IC50 is 30 nM.

Question: Which IC50 [1] does the source give for O=C(CC1CN(C2c3ccc(Cl)cc3CCc3cc(Br)cnc32)CCN1C(=O)Cc1ccncc1)NC1CC1 (stereo not drawn) here?
Answer: Its IC50 is 70 nM.

Question: With CNC(=O)C1CN(C2c3ccc(Cl)cc3CCc3cc(Br)cnc32)CCN1C(=O)Cc1ccc(Cl)cc1 (stereo not drawn) as the compound, how does the IC50 [1] read?
Answer: The IC50 was 100 nM.

Question: Which IC50 [1] does the source give for O=C(NCc1cccnc1)C1CCCN(C2c3ccc(Cl)cc3CCc3cc(Br)cnc32)C1 (stereo not drawn) here?
Answer: Its IC50 is 120 nM.

Question: And the IC50 [2]?
Answer: Its IC50 is 2000 nM.

Question: For O=C(NCC1CC1)C1CN(C2c3ccc(Cl)cc3CCc3cc(Br)cnc32)CCN1C(=O)Cc1ccncc1 (stereo not drawn), which IC50 [1] is on record?
Answer: Its IC50 is 50 nM.

Question: O=C(CC1CN(C2c3ccc(Cl)cc3CCc3cc(Br)cnc32)CCN1C(=O)CCc1ccccc1)NCc1cccnc1 (stereo not drawn) was tested. Which IC50 [1] did it give?
Answer: The IC50 was 960 nM.

Question: And the IC50 [2]?
Answer: The IC50 was 2000 nM.
